SMILES strings stand for the structures.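 Step 1: Grow cells in 96-well plates. Step 2: Expose to compound for 48 hours at 5 concentrations. Step 3: Interpolate endpoints linearly; if unreached, use highest concentration. At the GI50, growth is halved.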 Activity calls are given as the source filed them. Cut-off read from the data, not from the text of the source: active = GI50 up to about 1.1 µM and inactive = higher.

Test systems include EKVX; NCI-H226; SK-OV-3; MCF7; HCT-116; UACC-257; HL-60; MDA-MB-435; SN12C; 786-0; COLO 205; CCRF-CEM; A549; IGROV-1; U-251; HT-29; SW-620; RPMI-8226; OVCAR-4; HCT-15.
Common to all, as to assay: growth of human tumour cells (NCI), 48 h

Take `CN(Cc1cc(Br)cc(Br)c1O)Cc1c(O)ccc2ccccc12`: the GI50 with EKVX is 16.9 µM (inactive); with NCI-H226, 20.6 µM (inactive); with SK-OV-3, 19.6 µM (inactive); in the assay with MCF7, 26.4 µM (inactive); in the assay on HCT-116, 16.7 µM (inactive); in the assay on UACC-257, 17.3 µM (inactive). Besides, the GI50 with HL-60 was 18.3 µM (inactive); with MDA-MB-435 it was 18 µM (inactive); in the assay with SN12C it was 14.9 µM (inactive); in the assay on 786-0 it was 16.7 µM (inactive); in the assay with COLO 205, 19.1 µM (inactive); in the assay on CCRF-CEM, 20.7 µM (inactive). The GI50 in the assay with A549 was 17.7 µM (inactive); with IGROV-1 it was 20.2 µM (inactive); with U-251 it was 19.3 µM (inactive); in the assay with HT-29, 14.5 µM (inactive); in the assay with SW-620 it was 32 µM (inactive); with RPMI-8226, 22.6 µM (inactive). For the same compound, the GI50 is 16.5 µM (inactive) in the assay with OVCAR-4 and 30.3 µM in the assay with HCT-15.
For `c1cc(CSc2ncnc3[nH]cnc23)ccn1`, the GI50 in the assay on EKVX is > 100 µM (inactive); with NCI-H226 it was > 100 µM (inactive); with SK-OV-3, 41.3 µM (inactive); with MCF7 it was 83.4 µM (inactive); in the assay with HCT-116, 77.8 µM (inactive); in the assay with UACC-257 it was > 100 µM (inactive). For the same compound, the GI50 in the assay on HL-60 was 67.9 µM (inactive); with MDA-MB-435, 53.2 µM (inactive); with SN12C, > 100 µM (inactive); with 786-0 it was 39 µM (inactive); in the assay with COLO 205, > 100 µM (inactive); in the assay with CCRF-CEM it was 66.8 µM (inactive). In addition, the GI50 in the assay on A549 was > 100 µM (inactive); in the assay with IGROV-1, > 100 µM (inactive); in the assay on U-251 it was > 100 µM (inactive); in the assay on HT-29 it was 48.3 µM (inactive); in the assay with SW-620 it was > 100 µM (inactive); in the assay on RPMI-8226, 58.1 µM (inactive). Also, the GI50 was > 100 µM (inactive) with OVCAR-4 and over 100 µM in the assay with HCT-15.
Consider `CC1OC(O[C@H]2C3C=CO[C@@H](OC4OC(CO)C(O)C(O)C4O)C3[C@@]3(COC(=O)/C=C/c4ccccc4)O[C@@H]23)C(O)C(O)C1O` (stereo not given in full), for which the GI50 in the assay with EKVX, in the assay on NCI-H226, in the assay on SK-OV-3, in the assay with MCF7, with HCT-116 and in the assay on UACC-257 was > 100 µM (inactive) in each case. Besides, the GI50 in the assay with HL-60, in the assay on MDA-MB-435, with SN12C, with 786-0, with COLO 205 and in the assay with CCRF-CEM was > 100 µM (inactive) throughout. In addition, the GI50 in the assay on A549, in the assay on IGROV-1, with U-251, with HT-29, in the assay with SW-620 and in the assay on RPMI-8226 was > 100 µM (inactive) in each case. Further, the GI50 is > 100 µM (inactive) in the assay with OVCAR-4 and over 100 µM in the assay with HCT-15.
In the case of `CC(C)(C)OC(=O)N1CC(COS(C)(=O)=O)c2ccc(O)cc21` (stereo not given), the GI50 is 2.23 µM (inactive) in the assay with EKVX; 1.92 µM (inactive) in the assay on NCI-H226; 3.15 µM (inactive) with SK-OV-3; 1.13 µM (inactive) in the assay with MCF7; 1.95 µM (inactive) in the assay with HCT-116; 2.29 µM (inactive) in the assay on UACC-257. Also, the GI50 in the assay with HL-60 is 1.24 µM (inactive); in the assay on MDA-MB-435 it was 1.8 µM (inactive); with SN12C, 2.25 µM (inactive); with 786-0, 2.59 µM (inactive); in the assay with COLO 205, 1.58 µM (inactive); with CCRF-CEM, 0.455 µM (active). The GI50 with A549 was 3.12 µM (inactive); in the assay on IGROV-1, 2.84 µM (inactive); with U-251, 2.51 µM (inactive); in the assay with HT-29, 3.21 µM (inactive); in the assay on SW-620 it was 2.1 µM (inactive); in the assay on RPMI-8226 it was 0.615 µM (active). Also, the GI50 was 1.18 µM (inactive) in the assay on OVCAR-4 and 2.46 µM in the assay with HCT-15.
In the case of `CN1C(c2ccccc2)CC(=NOCc2ccccc2)CC1c1ccccc1` (stereo not given), the GI50 was 41.3 µM (inactive) with EKVX; 52.8 µM (inactive) in the assay with NCI-H226; 75 µM (inactive) with SK-OV-3; 18.6 µM (inactive) in the assay on MCF7; 18.5 µM (inactive) with HCT-116; 64.7 µM (inactive) in the assay with UACC-257. In addition, the GI50 was 19 µM (inactive) in the assay on HL-60; 16.9 µM (inactive) in the assay on MDA-MB-435; 44.6 µM (inactive) in the assay with SN12C; 38.9 µM (inactive) in the assay on 786-0; 50.6 µM (inactive) in the assay with COLO 205; 11.6 µM (inactive) with CCRF-CEM. In addition, the GI50 is 20.7 µM (inactive) in the assay with A549; 38.1 µM (inactive) with IGROV-1; 34.1 µM (inactive) in the assay with U-251; 26.2 µM (inactive) in the assay with HT-29; 28.1 µM (inactive) in the assay on SW-620; 37.2 µM (inactive) in the assay on RPMI-8226. The GI50 was 22.5 µM (inactive) in the assay on OVCAR-4 and 23.2 µM in the assay on HCT-15.
In the case of `Cn1c2ccccc2c(=NNc2ccccc2C(=O)O)c2ccccc21`, the GI50 is 11.8 µM (inactive) in the assay on EKVX; 16.2 µM (inactive) in the assay with NCI-H226; 20.3 µM (inactive) in the assay with SK-OV-3; 10.9 µM (inactive) with MCF7; 13.5 µM (inactive) with HCT-116; 23.8 µM (inactive) with UACC-257. Also, the GI50 with HL-60 is 17 µM (inactive); in the assay on MDA-MB-435, 20 µM (inactive); in the assay with SN12C, 23.7 µM (inactive); in the assay on 786-0, 27.5 µM (inactive); in the assay on COLO 205 it was 16.3 µM (inactive); with CCRF-CEM, 13.2 µM (inactive). For the same compound, the GI50 in the assay with A549 is 12.9 µM (inactive); with IGROV-1, 24.2 µM (inactive); in the assay on U-251, 7.03 µM (inactive); with HT-29 it was 17.7 µM (inactive); in the assay on SW-620, 24.4 µM (inactive); in the assay on RPMI-8226, 9.82 µM (inactive). Also, the values for the GI50 in the assay on OVCAR-4 and in the assay with HCT-15 were 13.7 µM (inactive) and 7.87 µM, respectively.
For the compound `Cc1noc(C)c1-n1nc2ccc3nonc3c2n1`, the GI50 in the assay on EKVX was 35.9 µM (inactive); with NCI-H226, > 81.8 µM (inactive); in the assay with SK-OV-3, 34.8 µM (inactive); in the assay with MCF7 it was > 67.8 µM (inactive); with HCT-116 it was 56.6 µM (inactive); in the assay with UACC-257, > 100 µM (inactive). Further, the GI50 in the assay with HL-60 is > 100 µM (inactive); with MDA-MB-435 it was > 100 µM (inactive); in the assay with SN12C it was > 100 µM (inactive); with 786-0 it was 37.5 µM (inactive); in the assay with COLO 205, > 100 µM (inactive); in the assay with CCRF-CEM, > 100 µM (inactive). Besides, the GI50 with A549 is > 100 µM (inactive); with IGROV-1, 81.7 µM (inactive); in the assay on U-251, 30.1 µM (inactive); in the assay on HT-29, > 100 µM (inactive); in the assay on SW-620 it was > 100 µM (inactive); in the assay with RPMI-8226 it was > 100 µM (inactive). Also, the GI50 was > 100 µM (inactive) with OVCAR-4 and over 100 µM in the assay with HCT-15.
`CCOC(=O)C12OC(CCC1=O)C(C(=O)OC)=C2C(=O)OC` (stereo not given): the GI50 in the assay on EKVX, in the assay with NCI-H226, in the assay with SK-OV-3, with MCF7, with HCT-116 and with UACC-257 was > 10 µM (inactive) each time. Besides, the GI50 with HL-60, in the assay with MDA-MB-435, in the assay with SN12C, in the assay with 786-0, in the assay with COLO 205 and in the assay on CCRF-CEM was > 10 µM (inactive) throughout. In addition, the GI50 with A549, with IGROV-1, in the assay on U-251, in the assay on HT-29, in the assay on SW-620 and in the assay on RPMI-8226 was > 10 µM (inactive) throughout. For the same compound, the GI50 was > 10 µM (inactive) in the assay with OVCAR-4 and over 10 µM with HCT-15.
For the compound `Cc1c(S(=O)(=O)c2ccccc2)c(N)n(Cc2ccccc2)c1C`, the GI50 with EKVX, in the assay with NCI-H226, with SK-OV-3, in the assay on MCF7, in the assay on HCT-116 and in the assay on UACC-257 was > 100 µM (inactive) throughout. The GI50 in the assay with HL-60, in the assay on MDA-MB-435, with SN12C, in the assay with 786-0, in the assay with COLO 205 and in the assay on CCRF-CEM was > 100 µM (inactive) in each case. The GI50 in the assay on A549, with IGROV-1, in the assay on U-251, with HT-29, with SW-620 and with RPMI-8226 was > 100 µM (inactive) throughout. The GI50 with OVCAR-4 was 85.7 µM (inactive); in the assay on HCT-15, over 100 µM.
For `COc1ccc(C[C@H]2NC[C@H](O)[C@H]2OC(C)=O)cc1` [ANISOMYCIN], the GI50 was 0.0361 µM (active) in the assay with EKVX; 0.0234 µM (active) with NCI-H226; 0.0398 µM (active) in the assay on SK-OV-3; 0.0193 µM (active) in the assay on MCF7; < 0.015 µM (active) in the assay with HCT-116; 0.0359 µM (active) with UACC-257. In addition, the GI50 is 0.0104 µM (active) with HL-60; 0.0259 µM (active) with MDA-MB-435; 0.0166 µM (active) with SN12C; 0.018 µM (active) in the assay on 786-0; < 0.0121 µM (active) with COLO 205; < 0.0122 µM (active) with CCRF-CEM. Moreover, the GI50 was 0.0232 µM (active) with A549; 0.0234 µM (active) in the assay on IGROV-1; 0.0309 µM (active) in the assay with U-251; < 0.0149 µM (active) in the assay on HT-29; 0.0164 µM (active) in the assay with SW-620; 0.0243 µM (active) in the assay with RPMI-8226. For the same compound, the GI50 in the assay on OVCAR-4 is 0.0194 µM (active); in the assay on HCT-15, 0.0326 µM.

The values above are taken from ChEMBL document CHEMBL1201862, “PubChem BioAssay data set” (2004).
